Experimental data as given in patent publication US20110237679A1, “NOVEL ANTIVIRAL COMPOUNDS, COMPOSITIONS, AND METHODS OF USE” (CYTOKINE PHARMASCIENCES, INC., priority 2008, published 2011).

Assay: in vitro activity comparison (FIG. 1)
Assay type: cell-based
Settings: relative to ITI-367

Compound: COc1ccccc1C(=Nc1cccc(C(F)(F)F)c1)NO [CPSI-00220, N-hydroxy-2-methoxy-N′-(3-trifluoromethyl-phenyl)-benzamidine]
- effectiveness in vitro compared with ITI-367: equally (and possibly more) as effective as ITI-367
